The text below walks through data of patent US20070122503A1, “USE OF EXTRACTS FROM CIMICIFUGA RACEMOSA AND OF TECTORIGENIN AS AN ESTROGEN-TYPE, ORGANOSELECTIVE MEDICAMENT HAVING NO UTEROTROPHIC EFFECT” (BIONORICA ARZNEIMITTEL GMBH, priority 1998, published 2007).

Structures are written as SMILES.

Assay type in all cases: in vivo, rat
The subject of data set [1] is ovariectomized Sprague-Dawley rats. Put plainly: Acute experiment, single i.v. injection of Belamcanda sinensis extract: serum LH. As to the method: All experiments described below were carried out with ovariectomized Sprague-Dawley rats (=ovx rats) having a weight between 240 and 280 g. The onset of the effect of the estradiol-type effect of Belamcanda sinensis extract occurs very quickly. Even after a single i.v. administration of vehicle, estradiol and Belamcanda sinensis extract to ovx rats, pulsatility ceases both under E2 and under Belamcanda sinensis. […] Cremophor is an emulsifier on the basis of polyethoxylated castor oil derivatives. The results are represented in FIG. 2. […] On the day of the experiment, 6 blood samples were taken at 10-min intervals. Immediately following taking of the 6th sample, 62.5 mg of the Belamcanda sinensis extract or 10 μg 17-β-estradiol (E2) or the solvent (5%) cremophor in isotonic NaCl 1 ml), respectively, were injected intravenously, and blood samples were taken for another 2 hours in 10-minute intervals. 6 hours after the intravenous administration, the animals were decapitated, blood was obtained and the uteri removed, weighed and deep-frozen in liquid nitrogen.

The subject of data set [2] is uterine VEGF, IGF1 and C3 genes, CCO gene. The experiment in a line: Acute experiment, single i.v. injection: uterine gene expression. To be noted: six hours after single i.v. injection; vs controls. As to the method:
All experiments described below were carried out with ovariectomized Sprague-Dawley rats (=ovx rats) having a weight between 240 and 280 g. […] On the day of the experiment, 6 blood samples were taken at 10-min intervals. Immediately following taking of the 6th sample, 62.5 mg of the Belamcanda sinensis extract or 10 μg 17-β-estradiol (E2) or the solvent (5%) cremophor in isotonic NaCl 1 ml), respectively, were injected intravenously, and blood samples were taken for another 2 hours in 10-minute intervals. 6 hours after the intravenous administration, the animals were decapitated, blood was obtained and the uteri removed, weighed and deep-frozen in liquid nitrogen.

Data set [3] has as its system ovariectomized Sprague-Dawley rats. The experiment in a line: Subacute test, daily s.c. injection through 7 days (Belamcanda sinensis): body weight, uterus weight, serum LH. To be noted: 7 days daily s.c., 62.5 mg extract or 10 μg estradiol.
Description: In the blood samples, LH and the estradiol immunoreactivity were determined.
The test system of data set [4] is uterine VEGF gene, CCO gene. The experiment in a line: Subacute test 7 days s.c. (Belamcanda sinensis): gene expression in uterine mRNA extract. To be noted: after one-week treatment, 10 μg estradiol s.c. daily. As to the method:
(§1) All experiments described below were carried out with ovariectomized Sprague-Dawley rats (=ovx rats) having a weight between 240 and 280 g.
The effects of repeated administration of estradiol, Belamcanda sinensis extract and vehicle on overall weight, uterus weight, hormone level and gene activation of uterus and bone were examined on ovariectomized rats after daily s.c. application through seven days.
8 animals each per test group (24 altogether) were daily injected subcutaneously between 8:00 and 9:00 a.m. with 62.5 mg Belamcanda sinensis extract and 10 μg estradiol or the solvent (cremophor 5%, 1 ml), respectively. 6 h after the last application, the animals were decapitated and from every animal the aorta, the uterus and the left femur head were removed, cleaned, and frozen in liquid nitrogen.

The test system of data set [5] is collagen-1A1, osteocalcin, IGF1 and TGFβ-mRNA, CCO gene in femur head. The experiment in a line: Subacute test 7 days s.c. (Belamcanda sinensis): mRNA expression in extracts of the femur head. To be noted: 7 days daily s.c.
Description: In extracts of the femur head, the collagen-1A1, osteocalcin, IGF1 and TGFβ-mRNA expression was determined.
For data set [6], the system named is ovariectomized Sprague-Dawley rats. Put plainly: Repeated s.c. administration of Cimicifuga racemosa over 7 days: uterus weight, vagina, LH. To be noted: 7 days s.c. once daily.
Description: (§5) 14 days following ovarectomy at the earliest, the animals have the respective test substance injected subcutaneously in a dose of 62.5 mg Cimicifuga racemosa/rat or 8 pg estradiol/rat once daily in the morning over a period of 7 days. Both substances were dissolved in 5% cremophor, the control animals only received the vehicle.
The LH concentration in the blood of the animals was determined by means of RIA.
Data set [7] relates to mRNA for the estrogen receptor. Put plainly: Repeated administration of Cimicifuga racemosa: mRNA expression in preoptic region of the hypothalamus (RT-PCR). To be noted: 7 days s.c.; semi-quantitative RT-PCR.
Description: Both substances were dissolved in 5% cremophor, the control animals only received the vehicle.
(§6) Following decapitation of the animals, brains, uterus and femur were prepared for mRNA-recovery. […] The expression of the estrogen-regulated genes in the above identified organs was determined by means of semi-quantitative RT-PCR.
(§7) As another marker for the estrogenic effect, the activation of mRNA of estrogen-inducible proteins was measured. What was measured here was tissue from uterus, from bone tissue (femur) and from the preoptic region of the hypothalamus.
The test system of data set [8] is mRNA for collagen 1 and osteocalcin. The experiment in a line: Repeated administration of Cimicifuga racemosa: mRNA expression in bone (femur) (RT-PCR). To be noted: 7 days s.c., semi-quantitative RT-PCR.
Description: as §5, §6, §7
Data set [9] has as its system mRNA for IGF1 and complement factor C3. Put plainly: Repeated administration of Cimicifuga racemosa: mRNA expression in uterus (RT-PCR). To be noted: 7 days s.c.; semi-quantitative RT-PCR.
Description: as §5, §6
What was measured here was tissue from uterus, from bone tissue (femur) and from the preoptic region of the hypothalamus.
Data set [10] has as its system ovariectomized Sprague-Dawley rats. Put plainly: One-time i.v. administration of tectorigenin: LH levels in the blood. To be noted: single i.v. 7 mg tectorigenin. As to the method:
as §1
(§2) Following a single administration of tectorigenin, the time development of influence on the LH levels in the blood and the estradiol-type immunoreactivity were determined. The concentration of tectorigenin in the blood of the animals, determined with the aid of E2-RIA, after 20 min corresponds to about 100 pg equivalent estradiol.
(§3) Execution: OVX rats had catheters placed in the vena jugularis externa under ether anesthesia 24 hours before the beginning of the experiment, in accordance with the method of Harms and Ojeda (Harms P G; Ojeda S R: A rapid and simple procedure for chronic cannulation of the rat jugular vein. J. Appl. Physiol. (1974) 36: 391-392). The tube end was positioned in a skin pocket in the neck. In order not to have to touch the animals for obtaining the blood samples, the catheter was prolonged with the aid of a silicone tube. Catheter and tube were rinsed with Ringer solution containing 50 IU heparin/ml.
Blood samples of 100 μl each were drawn from the animals at 10-min intervals, and the withdrawn volume replaced with Ringer/heparin solution. After the 6th sample, 1.0 ml of the respective test solution was applied intravenously. As test solutions there were used: 2% cremophor (=vehicle solution), tectorigenin 7 mg/ml vehicle, 17-β-estradiol 10 μg/ml vehicle. Blood was taken at ten-minute intervals through additional 140 min.
The blood samples thus obtained were filled into a 0.5 ml Eppendorf reaction vessel containing 10 μl heparin-Losung (5000 IU/ml, Liquemin), centrifuged for 10 min at 10 000*g, and the plasma stored at −20° C. until performance of the radioimmunoassays.
(§4) The RIAs for LH and Prolaktin are based on antisera, reference and iodisation preparations from NIH (Bethesda, Md., USA). The concentrations of estradiol and of the cross-reactive isoflavones were measured with the aid of an RIA from DPC, Bad Nauheim.

Data set [11] can be described thus: One-time i.v. administration of tectorigenin: estradiol-type immunoreactivity in blood (E2-RIA). To be noted: after 20 min; single i.v. 7 mg tectorigenin; ovx rats. The protocol:
as §1, §2
as §3, with “heparin/ml. […]” for “heparin/ml.”
as §4

Take `C[C@]12CC[C@@H]3c4ccc(O)cc4CC[C@H]3[C@@H]1CC[C@@H]2O` [E2, 17-β-estradiol]: the LH pulsatility result in data set [1] (62.5 mg extract or 10 μg E2, ovx rats) is “ceases”. Besides, the “serum LH levels” value in [1] (62.5 mg extract or 10 μg E2, prior to and 2 hours after injection, vs previous values and cremophor controls) is on record as “significant inhibitions”. Besides, in [2], the “expression of the uterine C3 gene” value was “clear increase”, the “expression of the uterine IGF1 gene” value is reported as “clear increase” and the “expression of the uterine VEGF gene” value is reported as “clear increase”. Further, in [3] (vs cremophor), the average body weights result is on record as “significantly lighter” and the uterus weights result is “more than tripled”. For the same molecule, in data set [3] (vs cremophor controls), the “serum LH levels” value is “more marked”. Also, in data set [4], the “gene expression of VEGF in uterine mRNA extract” value is 149 % of the control value. Further, in data set [5], the “IGF1 mRNA expression in femur head” value is “significantly inhibited”, the “TGFβ mRNA expression in femur head” value was “significantly inhibited”, the “collagen-1A1 mRNA expression in femur head” value is recorded as “significantly inhibited” and the “constitutive CCO gene expression in femur head” value is “without having an influence”. The “osteocalcin mRNA expression in femur head” value in data set [5] is reported as “significantly inhibited”. Besides, in [6] (62.5 mg Cimicifuga racemosa/rat or 8 pg estradiol/rat, n=8, RIA), the “LH concentrations in the blood, mean values” amounted to 7.83 ng/mL. Besides, the “Uterus weights (wet), mean values” in data set [6] (62.5 mg Cimicifuga racemosa/rat or 8 pg estradiol/rat, n=8, ovx rats) amounted to 702.1 mg. In data set [6] (ovx rats), the “LH levels compared with vehicle (in words)” value was “lowered significantly”, the “hornification of the vaginal epithelium tissue” value is “quite contrary” and the “uterus weight compared with vehicle (in words)” value was “more than three times the weight”. The “expression of the mRNA for the estrogen receptor in the preoptic region of the hypothalamus” value in [7] is listed as “stimulate”. Moreover, in [8], the “expression of the mRNA for osteocalcin in bone tissue” value is reported as “reduces, in analogy with estradiol” and the “expression of the mRNA for the bone-specific collagen 1 in bone tissue” value is “reduces, in analogy with estradiol”. For the same molecule, in data set [9], the “mRNA for IGF1 in the uterus” value is reported as “increases” and the “mRNA for complement factor C3 in the uterus” value was “increases”.

Consider `COc1c(O)cc2occ(-c3ccc(O)cc3)c(=O)c2c1O` [tectorigenin], for which, in data set [10] (compared with 10 μg 17-β-estradiol), the “kinetics of the LH reduction up to 60 min following i.v. administration” value was “precisely correspond to the one of estradiol”. For the same molecule, the “LH levels in the blood” value in [10] (ovx rats) was “rapid LH reduction”. Further, the “course of LH after 60 min following i.v. administration” value in [10] (sampling to 140 min) is given as “do not result in further reduction but slowly increases again”. Also, the “concentration of tectorigenin in the blood, determined with E2-RIA” value in [11] is recorded as “about 100 pg equivalent estradiol”.
